Results published in patent US20130225430A1, “METHODS AND COMPOSITIONS FOR TREATMENT OF TOX-3 AND TFF-1 MEDIATED CANCER PATHOGENESIS” (CEDARS-SINAI MEDICAL CENTER, priority 2012, published 2013).

How the values were obtained:
[1] = tested on: ERα binding to ERE I, ERE II, and ERE III; conditions: reported ER ChIP studies (ref. 46); cited from earlier work
[2] = tested on: TFF1 gene expression in MCF-7 cells; experiment: TFF1 expression by quantitative RT-PCR in MCF-7 cells transfected with TOX3 or vector control; conditions: for Effect on TFF1 expression compared to untreated control cells: MCF7 cells, normal culture conditions (not estrogen depleted); for TOX3 induction of TFF1 expression: resistant or sensitive to the drug: TOX3 transfected MCF7 cells, estrogen depleted medium, 36 hours
Protocol: Measurement of TFF1 induction by TOX3. […] MCF7 cells were transfected with a TOX3 expression vector or vector control, switched to estrogen depleted-medium after 8 hours in the presence or absence of the indicated drug, and analyzed by quantitative RT-PCR for TFF1 gene expression after an additional 36 hours in culture.

SMILES | ER binding at ERE I, II, and III sites upstream of TFF1 and TMPRSS3 [1] | Effect on TFF1 expression compared to untreated control cells [2] | TOX3 induction of TFF1 expression: resistant or sensitive to the drug [2]
CC/C(=C(\c1ccccc1)c1ccc(OCCN(C)C)cc1)c1ccccc1 [tamoxifen] | residual binding | decrease | resistant
C[C@]12CC[C@@H]3c4ccc(O)cc4C[C@@H](CCCCCCCCC[S+]([O-])CCCC(F)(F)C(F)(F)F)[C@H]3[C@@H]1CC[C@@H]2O (stereo partly drawn) [fulvestrant] | residual binding | decrease | sensitive
